In patent US4395416A, “1-Spiro isobenzofuranic and 1-spiro isobenzothiophenic derivatives the process for preparing the same and their use in therapeutics” (Delalande S.A., priority 1981, dated 1983) one finds ED50, LD50 and mortality data, which are given here for 27 compounds.

Bounds are passed on as bounds.

Data set [1] relates to mice. In words: Protection against death induced by intravenous bicuculline (anti-convulsion activity). The class given is in vivo. The note with it: Mus musculus, ip, intravenous injection of 0.7 mg/kg of bicuculline, read-out: Efficient doses 50 - ED 50 protecting against death induced by Bicuculline.
Data set [2] can be described thus: Acute toxicity (mice - LD 50). The note with it: mouse, in vivo, ip; for mortality: at 400 mg/kg, read-out: Acute toxicity, % at 400 (mg/kg/i.p.), printed in the LD 50 column.
The test system of data set [3] is mice. Put plainly: Phenylbenzoquinone test (analgesic activity). It counts as in vivo. The note with it: Mus musculus, ip, read-out: Phenylbenzoquinone test - ED 50. An excerpt: The analgesic activity was shown up on mice by interperitoneal injection of the compounds of formula (I) and their salts using the phenylbenzoquinone test according to the method described by E. SIEGMUND in Proced. Soc. Exp. Biol. and Med. 95, 729 (1957).

The term LD50 denotes the dose expected to kill half of the subjects tested.

In the case of `O=C1SC2(CCCN2c2ccccc2)c2ccc(Cl)cc21` (stereo not shown) [compound 38], the ED50 in data set [1] worked out at 56 mg/kg. This compound returned a median lethal dose (LD50) in data set [2] above 400 mg/kg.
As to `O=C1SC2(CCCN2c2ccc(Cl)cc2)c2ccccc21` (stereo not shown) [compound 39], the ED50 in data set [1] was found to be 62 mg/kg. Moreover, the LD50 in data set [2] was above 400 mg/kg.
`COc1ccc2c(c1)C(=O)SC21CCCN1C` (stereo not shown) [compound 9]: the ED50 in data set [1] was 40 mg/kg. For the same compound, the 50% lethal dose (LD50) in data set [2] is above 400 mg/kg.
Regarding `CN1CCCC12OC(c1ccccc1)c1ccccc12` (stereo not shown) [compound 44], the ED50 in data set [1] came out at 45 mg/kg; in data set [3], 64 mg/kg. In addition, in data set [2], the LD50 was above 400 mg/kg.
As to `CN1CCCC12SC(=O)c1cc(Cl)ccc12` (stereo not shown) [compound 6], in data set [1], the ED50 was 8 mg/kg. The compound also showed a median lethal dose (LD50) in data set [2] above 400 mg/kg.
As to `CC(C)CN1CCCC12SC(=O)c1cc(Cl)ccc12` (stereo not shown) [compound 36], in data set [1], the ED50 amounted to 30 mg/kg. In data set [2], the median lethal dose (LD50) was above 400 mg/kg.
In the case of `COc1cc2c(cc1OC)C1(CCCN1C)SC2=O` (stereo not shown) [compound 10], the ED50 in data set [1] came to 30 mg/kg. Further, the 50% lethal dose (LD50) in data set [2] is above 400 mg/kg.
On to `CN1CCCCC12SC(=O)c1ccccc12` (stereo not shown) [compound 2], for which the ED50 in data set [1] was determined as 100 mg/kg; in data set [3] it was 50 mg/kg. In addition, the LD50 in data set [2] was above 400 mg/kg.
As for `O=C1OC2(CCCC2)c2ccccc21` [compound 23], the ED50 in data set [1] turned out to be 76 mg/kg. For the same compound, in data set [2], the 50% lethal dose (LD50) is above 400 mg/kg.
As for `COc1ccc2c(c1)C1(CCCN1C)SC2=O` (stereo not shown) [compound 8], in data set [1], the ED50 turned out to be 100 mg/kg. Besides, the LD50 in data set [2] was above 400 mg/kg.
As to `CCCN1CCCC12SC(=O)c1cc(Cl)ccc12` (stereo not shown) [compound 34], in data set [1], the ED50 worked out at 11 mg/kg. The mortality in data set [2] is 40%.
Regarding `CN1CCCC12SCc1ccccc12` (stereo not shown) [compound 22], in data set [1], the ED50 amounted to 34 mg/kg. Moreover, the LD50 in data set [2] was determined as 290 mg/kg.
Taken in the same sequence, the figures for `CN1CCCC12SC(=O)c1ccc(Cl)cc12` (stereo not shown) [compound 5] were 80 mg/kg and above 400 mg/kg.
As to `O=C1SC2(CCCN2c2ccc(Cl)cc2)c2ccc(Cl)cc21` (stereo not shown) [compound 40], the ED50 in data set [1] came to 100 mg/kg. The same compound registered an LD50 in data set [2] above 400 mg/kg.
Taken in the same sequence, the figures for `CCN1CCCC12SC(=O)c1ccccc12` (stereo not shown) [compound 3] were 26 mg/kg and above 400 mg/kg.
Take `CN1CCCC12SC(=O)c1cc3ccccc3cc12` (stereo not shown) [compound 42]: in data set [1], the ED50 is 34 mg/kg. The compound also came in with an LD50 in data set [2] above 400 mg/kg.
Taken in the same sequence, the figures for `O=C1SC2(CCCN2c2ccccc2)c2ccccc21` (stereo not shown) [compound 37] were 100 mg/kg and above 400 mg/kg.
Taken in the same sequence, the figures for `CN1CCCC12SC(=O)c1cc(Br)ccc12` (stereo not shown) [compound 41] were 29.5 mg/kg and above 400 mg/kg.
Regarding `CN1CCCC12SC(=O)c1cc(F)ccc12` (stereo not shown) [compound 16], the ED50 in data set [1] stood at 25 mg/kg. This compound had an LD50 in data set [2] above 400 mg/kg.
`CN1CCCC12SC(=O)c1ccccc12` (stereo not shown) [Code number 1]: the ED50 in data set [1] stood at 7 mg/kg; in data set [3], 30 mg/kg. In data set [2], this compound yielded an LD50 of 400 mg/kg.
In the case of `CCN1CCCC12SC(=O)c1cc(Cl)ccc12` (stereo not shown) [compound 7], the ED50 in data set [1] was 10 mg/kg. Also, the median lethal dose (LD50) in data set [2] was above 400 mg/kg.
Consider `CCCN1CCCC12SC(=O)c1ccccc12` (stereo not shown) [Code number 4], for which the ED50 turned out to be 47 mg/kg in data set [1] and 35 mg/kg in data set [3]. The 50% lethal dose (LD50) in data set [2] was above 400 mg/kg.
With `CN1CCCC12SCc1cc(Cl)ccc12` (stereo not shown) [compound 45], the ED50 in data set [1] worked out at 15 mg/kg. Also, the LD50 in data set [2] is above 400 mg/kg.
`CCCCN1CCCC12SC(=O)c1cc(Cl)ccc12` (stereo not shown) [compound 35]: the ED50 in data set [1] was 26 mg/kg. In data set [2], the mortality stood at 60%.
For `S=C1OC2(CCCC2)c2ccccc21` [compound 24], the ED50 stood at 63 mg/kg in data set [1] and 46 mg/kg in data set [3]. In data set [2], the 50% lethal dose (LD50) is above 400 mg/kg.
Taken in the same sequence, the figures for `CN1CCCC12OCc1cc(Cl)ccc12` (stereo not shown) [compound 43] were 27.5 mg/kg, 30 mg/kg and above 400 mg/kg.
For `CN1CCCC12OCc1ccccc12` (stereo not shown) [compound 21] the same measures were 15 mg/kg, 100 mg/kg and 275 mg/kg.
